Measured values taken from patent US20060052298A1, “Use of stable glutamine derivatives to improve drug absorption” (priority 2002, published 2006).
Where two headings read alike, the source gives them in different places. Peptide text beside a SMILES is read from it.

Experiments:
[1] = 2-hour (peak) antiretroviral drug levels in blood; conditions: for concentration at 2 h: blood, po, mean 2-hour drug level, oral ARV therapy; for number of patients whose AZT levels did not improve (of eight): 14 patients taking AZT; for number of patients with an increase in their D4T levels / number of patients who did not increase their D4T levels: 15 patients on D4T; for number of patients whose 3TC levels did not improve / number of patients whose 3TC levels improved with therapy: 18 patients on 3TC; for drug levels improved, all ARV drugs including NNRTI and PI / mean percent improvement in antiretroviral drug levels / peak paired NRTI levels improved: after 7 days of study drug
Source text: HUV positive patients on therapy presenting at the Hospital Sao Jose with diarrhea (≧3 stools/day×14 days) and wasting (loss of ≧10% of their body weight) from March 2001 to April 2002, were invited to participate. After informed consent, patients were assigned to one of four equi-nitrogenous blinded study groups including glycine controls (FIG. 1). Group A received 46 gm of oral glycine/day (Spectrum, Gardena, Calif.). Group B received 30 gm of oral glutamine/day (Cambridge Neutraceuticals, Cambridge, Mass.) and 15 gm of glycine, Group C received 4 grams alanyl-glutamine (Degussa/Creanova, Parsippany, N.J.) and 42 gm of glycine and Group D received 44 gm of alanyl-glutamine (Ala-Gln). The 44 gm alanyl-glutamine dose was calculated to contain equimolar glutamine to 30 gm of glutamine, and glycine was added to glutamine and low dose alanyl-glutamine groups to equalize the amount of nitrogen received by all participants.
Antiretroviral drug levels were determined at Tibotec-Virco, Mechelen, Belgium. Peak values were determined for each drug, and drug level ranges supplied by the manufacturer were used to define low levels. Viral genotype was determined by DNA sequencing at Visible Genetics, Suwanee, Ga. […] Two-tailed statistical analyses for comparison of paired values included Student's t-test and ANOVA and expressed as […] the standard deviation. Chi-square test or Fisher Exact test were used to compare proportions.

[2] = test system: HIV positive patients with diarrhea and wasting; assay: Clinical response by diarrhea frequency and consistency in AIDS patients with diarrhea and wasting; assay type: in vivo, human; conditions: 7 days; high dose Ala-Gln 44 gm/day; glycine controls 46 gm/day
Source text: Patients were asked daily about the frequency and consistency of their diarrhea and other gastrointestinal complaints including anorexia, vomiting, and abdominal cramping. Changes in frequency of diarrhea was scored as 0 if the total number of stools in the second half of the 9-day study was less than 2 fewer (or greater) than the number in the first half of the study (including the 2 days before study treatment was started); scored as − or +1 if stool frequencies were reduced or increased by 2 to 3, respectively; and − or +2 if the frequencies were reduced or increased by >3, respectively. In addition, consistencies were graded as liquid, soft or formed and scored as 0, 1 or 2 respectively and changes were added to the frequency scores above. Intestinal permeability was measured by urinary excretion of lactulose, mannitol and their ratio as previously described (Lima et al., Am J Gastroenterol 1997; 92(10):1861-1866). Lactulose and mannitol in urine was determined by high performance liquid chromatography (HPLC) and at Great Smokies Diagnostic Laboratory, Asheville, N.C.

[3] = test system: salt and water absorption; conditions: compared with glucose; cited from earlier work
[4] = compared with glutamine; cited from earlier work
[5] = test system: small intestinal epithelial crypt cells (line IEC-6); assay: IEC-6 cell migration after wounding (restitution model); assay type: cell-based; conditions: IEC-6 cells, 2.5 mmol/liter
Source text: In 1992, McCormack et al. established a model to study the process of cell migration involved in the early restitution of mucosal erosion. […] This model system is used in the present invention in order to show the important effect of stable glutamine derivatives on intestinal epithelial restitution. To investigate the ability of glutamine and stabilized glutamine derivatives to enhance the healing of mucosal tissues, a model system based on the migration of small intestinal epithelial crypt cells (line IEC-6) was used. The small epithelial crypt cell line (IEC-6 cells) was obtained from the American Type Culture Collection (Rockville, Md.). The medium consisted of Dullbecco's modified Eagle medium (DMEM) with 5% heat-inactivated FBS and 10 μg insulin and 50 μg gentamicin sulfate per milliliter. For the experiments, the cells were taken up with 0.25% trypsin plus 2.65 mM EDTA and plated at 6.25×10^4 cell/cm^2 in 35 mm dishes thinly coated with Matrigel according to the manufacturer's instructions. The cells were fed every other day. To initiate migration, the cell layer was scratched with a single razor blade cut to approximately 27 mm in length. The scratch began at the diameter of the dish and extended over an area 7 to 10 mm wide. After the scratch, the cells were washed twice with sterile PBS. Then, medium containing no supplemental substances or medium containing glutamine or alanyl-glutamine (2.5 mmol/liter) was replaced, and the dishes were returned to the incubator. The experiments were carried out in triplicate. After 6 hours, 8 hours, and 24 hours, the dishes were removed from the incubator, and photographed using an inverted phase contrast microscope attached with camera The migration cells in five contiguous 0.1-mm squares were counted at ×100 magnification beginning at the scratch line and extending as far out as the cells had migrated. The counting was done in the area of the highest migration rate by means of an eyepiece reticle.

intestinal permeability = conditions: over 28 days, cited from earlier work
[6] = all study groups together, 18 on 3TC, 15 on D4T, 14 on AZT
[7] = human, controls without diarrhea or wasting
[8] = human, study patients with diarrhea and wasting
[9] = study patients with diarrhea and wasting
[10] = high dose Ala-Gln, control group
[11] = high dose Ala-Gln, Gln, glycine
[12] = high dose Ala-Gln 44 gm/day, Gln 30 gm/day (+15 gm glycine), glycine 46 gm/day
[13] = high dose Ala-Gln 44 gm/day, Gln 30 gm/day (+15 gm glycine), glycine controls 46 gm/day
[14] = low dose Ala-Gln 4 grams/day (+42 gm glycine)

Nc1ccn([C@@H]2CS[C@H](CO)O2)c(=O)n1 [3TC, lamivudine, reference compound]
number of patients whose level of this ARV drug improved with therapy [1, 6]: 10 | concentration at 2 h [1, 7]: 2.81 µg/mL | concentration at 2 h [1, 8]: 1.5 µg/mL | patients with drug levels below the expected range, in words [1, 9]: All

Cc1cn([C@H]2C[C@H](N=[N+]=[N-])[C@@H](CO)O2)c(=O)[nH]c1=O [AZT, zidovudine, reference compound]
number of patients whose level of this ARV drug improved with therapy [1, 6]: six

C[C@H](N)C(=O)N[C@@H](CCC(N)=O)C(=O)O [Ala-Gln, alanyl-glutamine] (H-Ala-Gln-OH)
patients improved (diarrhea frequency and consistency) [2]: 89% | number of patients whose AZT levels did not improve (of eight) [1, 10]: 1 | number of patients whose AZT levels did not improve (of eight) ([1]; low dose Ala-Gln): 3 | number of patients with an increase in their D4T levels ([1]; high dose Ala-Gln): 3 | number of patients who did not increase their D4T levels [1, 11]: 1 | number of patients who did not increase their D4T levels ([1]; low dose Ala-Gln): 2 | number of patients with an increase in their D4T levels ([1]; low dose Ala-Gln): 3 | number of patients whose 3TC levels did not improve [1, 11]: none | number of patients whose 3TC levels improved with therapy [1, 11]: 2 | number of patients whose 3TC levels did not improve ([1]; low dose Ala-Gln): 3 | number of patients whose 3TC levels improved with therapy ([1]; low dose Ala-Gln): 4 | drug levels improved, all ARV drugs including NNRTI and PI [1, 12]: 63% | mean percent improvement in antiretroviral drug levels [1, 13]: 113% | peak paired NRTI levels improved [1, 13]: 75% | drug levels improved, all ARV drugs including NNRTI and PI [1, 14]: 50% | mean percent improvement in antiretroviral drug levels [1, 14]: 8% | peak paired NRTI levels improved [1, 14]: 55% | drive of salt and water absorption [3]: comparable to, if not better, than glucose | stability in acidic water solutions [4]: much more stable | cell migration compared to control ([5]; 6 hours, 8 hours, and 24 hours after the scratch): significantly enhanced cell migration | cell migration increase related to control ([5]; 8 hours after the scratch): 107% | cell migration increase related to control ([5]; 24 hours after the scratch): 173% | enhancement of cell migration, more than glutamine ([5]; after 6 hours): 46% | enhancement of cell migration, more than glutamine ([5]; after 8 hours): 55%

NC(=O)CC[C@H](N)C(=O)O [Gln, glutamine]
number of patients who did not increase their D4T levels [1, 11]: 3 | number of patients whose 3TC levels did not improve [1, 11]: 2 | number of patients whose 3TC levels improved with therapy [1, 11]: 2 | drug levels improved, all ARV drugs including NNRTI and PI [1, 12]: 57% | mean percent improvement in antiretroviral drug levels [1, 13]: 14% | peak paired NRTI levels improved [1, 13]: 64.3% | intestinal permeability (intestinal permeability; 4 g/day): less worsening | absorption of mannitol (intestinal permeability; 8 g/day): improved | intestinal permeability (intestinal permeability; 8 g/day): stabilization

O=c1[nH]cnc2c1ncn2[C@H]1CC[C@@H](CO)O1 [ddI, didanosine, reference compound]
concentration at 2 h [1, 7]: 0.737 ± 0.226 µg/mL | concentration at 2 h [1, 8]: 0.397 ± 0.151 µg/mL | patients with drug levels below the expected range, in words [1, 9]: All

O=C1Nc2ccc(Cl)cc2[C@@](C#CC2CC2)(C(F)(F)F)O1 [efavirenz, reference compound]
patients with drug levels below the expected range (low drug levels) [1, 9]: 85%

NCC(=O)O [glycine, reference compound]
patients improved (diarrhea frequency and consistency) [2]: 38% | number of patients whose AZT levels did not improve (of eight) [1, 10]: half | number of patients who did not increase their D4T levels [1, 11]: 2 | number of patients whose 3TC levels did not improve [1, 11]: 3 | number of patients whose 3TC levels improved with therapy [1, 11]: 2 | drug levels improved, all ARV drugs including NNRTI and PI [1, 12]: 20% | mean percent improvement in antiretroviral drug levels [1, 13]: −32% | peak paired NRTI levels improved [1, 13]: 15.4%

Cc1c(O)cccc1C(=O)N[C@@H](CSc1ccccc1)[C@H](O)CN1C[C@H]2CCCC[C@H]2C[C@H]1C(=O)NC(C)(C)C [nelfinavir, reference compound]
patients with drug levels below the expected range (low drug levels) [1, 9]: 44%

CC(C)c1nc(CN(C)C(=O)N[C@H](C(=O)N[C@@H](Cc2ccccc2)C[C@H](O)[C@H](Cc2ccccc2)NC(=O)OCc2cncs2)C(C)C)cs1 [ritonavir, reference compound]
patients with drug levels below the expected range, in words [1, 9]: All

CC(C)(C)NC(=O)[C@@H]1C[C@@H]2CCCC[C@@H]2CN1C[C@@H](O)[C@H](Cc1ccccc1)NC(=O)[C@H](CC(N)=O)NC(=O)c1ccc2ccccc2n1 [saquinavir, reference compound]
patients with drug levels below the expected range, in words ([1]; in vivo): All

Cc1cn([C@H]2C=C[C@@H](CO)O2)c(=O)[nH]c1=O [stavudine, reference compound]
patients with drug levels below the expected range (low drug levels) ([1]; human, in vivo, 2 h): 20% | number of patients whose level of this ARV drug improved with therapy ([1]; in vivo): seven
